Data set [1] in a line: Chemical stability of the compound in HEPES buffer assessed as compound remaining at 10 mg at pH 7.4 measured at 10 hrs by HPLC method. It counts as physicochemical. To be noted: read-out: Stability.
For a further data set, the target named is Carbonic anhydrase 12 (Homo sapiens, UniProt O43570).
A further data set addresses Carbonic anhydrase 9 (Homo sapiens, UniProt Q16790).
Data set [2] in a line: Chemical stability of the compound in HEPES buffer assessed as compound remaining at 10 mg at pH 7.4 measured at 5 hrs by HPLC method. The data set is classed as physicochemical. To be noted: read-out: Stability.
The nature of data set [3]: Chemical stability of the compound in HEPES buffer assessed as compound remaining at 10 mg at pH 7.4 measured at 0 hr by HPLC method. The data set is classed as physicochemical. Conditions: read-out: Stability.
Data set [4] can be described thus: Chemical stability of the compound in HEPES buffer assessed as compound remaining at 10 mg at pH 7.4 measured at 24 hrs by HPLC method. The data set is classed as physicochemical. To be noted: read-out: Stability.
Data set [5] can be described thus: Chemical stability of the compound in HEPES buffer assessed as compound remaining at 10 mg at pH 7.4 measured at 3 hrs by HPLC method. It counts as physicochemical. Conditions: read-out: Stability.
In a further data set the target is Carbonic anhydrase 1 (Homo sapiens, UniProt P00915).
Sequence of Carbonic anhydrase 1 (P00915 whole entry): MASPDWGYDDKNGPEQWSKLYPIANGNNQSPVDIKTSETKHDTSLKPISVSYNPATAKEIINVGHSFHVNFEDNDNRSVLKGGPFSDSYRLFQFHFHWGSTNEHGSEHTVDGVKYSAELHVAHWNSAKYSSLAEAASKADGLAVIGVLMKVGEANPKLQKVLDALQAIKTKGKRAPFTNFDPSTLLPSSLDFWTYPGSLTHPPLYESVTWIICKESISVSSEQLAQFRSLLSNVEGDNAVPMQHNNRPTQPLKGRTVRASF

Sequence of Carbonic anhydrase 12 (O43570 whole entry): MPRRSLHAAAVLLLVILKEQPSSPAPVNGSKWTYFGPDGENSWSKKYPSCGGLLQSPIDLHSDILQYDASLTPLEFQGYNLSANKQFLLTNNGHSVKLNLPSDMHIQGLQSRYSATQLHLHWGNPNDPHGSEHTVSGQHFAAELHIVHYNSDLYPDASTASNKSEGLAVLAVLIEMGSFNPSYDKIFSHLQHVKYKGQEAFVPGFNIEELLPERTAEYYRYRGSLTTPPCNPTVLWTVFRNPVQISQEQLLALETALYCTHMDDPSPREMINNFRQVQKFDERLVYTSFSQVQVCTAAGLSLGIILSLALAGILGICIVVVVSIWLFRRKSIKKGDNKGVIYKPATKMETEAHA
Description for Carbonic anhydrase 12: Inhibition of recombinant human transmembrane, tumor-associated form of carbonic anhydrase-12 preincubated for 15 mins by stopped flow CO2 hydration assay

`NS(=O)(=O)c1ccc(CCNCc2ccccc2)cc1`: in data set [1], the remaining at 10 h was 100%. For the same compound, the Ki on Carbonic anhydrase 12 came to 6.3 nM; at Carbonic anhydrase 9, 4.3 nM. Moreover, the remaining at 5 h in data set [2] came to 100%. Further, the remaining at 0 h in data set [3] came out at 100%. Also, the remaining at 24 h in data set [4] stood at 100%. Moreover, the remaining at 3 h in data set [5] stood at 100%.

For `NS(=O)(=O)c1ccc(CC/N=C\c2ccccc2O)cc1`, the inhibition constant Ki on Carbonic anhydrase 12 came to 46.8 nM; at Carbonic anhydrase 9 it was 138 nM; on Carbonic anhydrase 1, 393 nM.

Consider `NS(=O)(=O)c1ccc(CC/N=C\c2cc(Br)cc(Br)c2O)cc1`, for which the Ki on Carbonic anhydrase 9 came to 163 nM.

For the compound `NS(=O)(=O)c1ccc(CC/N=C\c2ccccc2)cc1`, in data set [1], the remaining at 10 h came to 51%. The Ki at Carbonic anhydrase 9 was determined as 220 nM. Besides, the remaining at 5 h in data set [2] was 89%. For the same compound, in data set [3], the remaining at 0 h stood at 100%. Moreover, in data set [4], the remaining at 24 h was 14%. Moreover, the remaining at 3 h in data set [5] turned out to be 100%.

In the case of `Cc1cccc(/C=N\CCc2ccc(S(N)(=O)=O)cc2)c1O`, affinity at Carbonic anhydrase 9 was put at a Ki of 295 nM.

Turning to `COc1ccc(/C=N\CCc2ccc(S(N)(=O)=O)cc2)cc1`, in data set [1], the remaining at 10 h turned out to be 43%. On Carbonic anhydrase 9, this compound displayed a Ki of 231 nM. In data set [2], the remaining at 5 h worked out at 72%. Also, the remaining at 0 h in data set [3] stood at 100%. In addition, in data set [4], the remaining at 24 h worked out at 8%. In data set [5], the remaining at 3 h is 100%.

Compound `NS(=O)(=O)c1ccc(CC/N=C\c2cc(Br)ccc2O)cc1` showed a Ki at Carbonic anhydrase 9 of 187 nM.

On Carbonic anhydrase 9, `Cc1ccc(/C=N\CCc2ccc(S(N)(=O)=O)cc2)cc1` came in with an inhibition constant (Ki) of 123 nM.

Compound `NS(=O)(=O)c1ccc(CC/N=C\c2cc(Cl)ccc2O)cc1` registered a Ki at Carbonic anhydrase 9 of 106 nM.

Turning to `NS(=O)(=O)c1ccc(CC/N=C\c2ccc(OCc3ccccc3)cc2)cc1`, the Ki on Carbonic anhydrase 9 came out at 230 nM.

As for `NS(=O)(=O)c1ccc(CC/N=C\c2cc(Cl)cc(Cl)c2O)cc1`, the inhibition constant Ki at Carbonic anhydrase 9 came out at 190 nM.

With `CN(C)c1ccc(/C=N\CCc2ccc(S(N)(=O)=O)cc2)cc1`, the inhibition constant Ki was determined as 3120 nM on Carbonic anhydrase 12, 39.1 nM on Carbonic anhydrase 9 and 453 nM on Carbonic anhydrase 1.

On to `NS(=O)(=O)c1ccc(CCNCc2ccccc2O)cc1`, for which the affinity at Carbonic anhydrase 9 corresponds to a Ki of 3.9 nM.

For the compound `NS(=O)(=O)c1ccc(CCNCc2cc(Br)cc(Br)c2O)cc1`, the affinity at Carbonic anhydrase 9, expressed as Ki, was 4.1 nM.

`Cc1cccc(CNCCc2ccc(S(N)(=O)=O)cc2)c1O` came in with a Ki at Carbonic anhydrase 9 of 3.7 nM.

On to `COc1ccc(CNCCc2ccc(S(N)(=O)=O)cc2)cc1`, for which, in data set [1], the remaining at 10 h worked out at 100%. Moreover, the inhibition constant Ki on Carbonic anhydrase 12 amounted to 37.7 nM; at Carbonic anhydrase 1 it was 4.6 nM. Also, the remaining at 5 h in data set [2] was 100%. The remaining at 0 h in data set [3] is 100%. For the same compound, in data set [4], the remaining at 24 h was 100%. Besides, the remaining at 3 h in data set [5] is 100%.

`NS(=O)(=O)c1ccc(CCNCc2cc(Br)ccc2O)cc1` came in with a Ki on Carbonic anhydrase 9 of 4.3 nM.

Regarding `Cc1ccc(CNCCc2ccc(S(N)(=O)=O)cc2)cc1`, the affinity at Carbonic anhydrase 9, expressed as Ki, was 10.2 nM.

`NS(=O)(=O)c1ccc(CCNCc2cc(Cl)ccc2O)cc1` displayed an inhibitory constant (Ki) on Carbonic anhydrase 9 of 15.6 nM.

In turn, `NS(=O)(=O)c1ccc(CCNCc2ccc(OCc3ccccc3)cc2)cc1` yielded a Ki at Carbonic anhydrase 9 of 2.9 nM.

Consider `CCN[C@H]1C[C@H](C)S(=O)(=O)c2sc(S(N)(=O)=O)cc21` [DORZOLAMIDE], for which affinity at Carbonic anhydrase 12 was put at a Ki of 3 nM.

By Ki is commonly meant the equilibrium dissociation constant of an inhibitor or competing ligand from its target. Read a high Ki as lower affinity.

The values are drawn from ChEMBL document CHEMBL3421572, “Synthesis of Schiff base derivatives of 4-(2-aminoethyl)-benzenesulfonamide with inhibitory activity against carbonic anhydrase isoforms I, II, IX and XII” (Bioorg Med Chem Lett, 2015).
